Data: publication PMC2556205 (Journal of medicinal chemistry, 2008)

What was measured:
[1] = biological target: T1, purified recombinant rat FAAH (Rattus norvegicus, UniProt P97612); assay: FAAH inhibition assay, 14C-oleamide hydrolysis, Dixon plot; assay type: biochemical; details: for FAAH inhibition (in words): pH 9 assay conditions
T1 sequence (P97612 30-579 limits assumed): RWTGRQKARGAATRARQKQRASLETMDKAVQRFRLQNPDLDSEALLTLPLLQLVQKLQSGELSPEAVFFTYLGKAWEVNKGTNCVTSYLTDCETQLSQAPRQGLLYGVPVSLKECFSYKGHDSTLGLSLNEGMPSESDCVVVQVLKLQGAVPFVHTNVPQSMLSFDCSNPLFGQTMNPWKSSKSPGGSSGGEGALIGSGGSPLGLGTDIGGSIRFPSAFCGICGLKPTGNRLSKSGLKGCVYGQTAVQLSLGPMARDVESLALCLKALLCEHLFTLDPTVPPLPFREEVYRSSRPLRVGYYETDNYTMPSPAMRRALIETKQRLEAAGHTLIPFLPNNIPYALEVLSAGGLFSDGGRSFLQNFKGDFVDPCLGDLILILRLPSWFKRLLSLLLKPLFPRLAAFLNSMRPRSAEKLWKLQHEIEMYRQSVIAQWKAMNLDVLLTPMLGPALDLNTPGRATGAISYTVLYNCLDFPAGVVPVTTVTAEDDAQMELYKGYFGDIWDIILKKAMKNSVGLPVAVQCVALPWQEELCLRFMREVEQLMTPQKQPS

FAAH knockout mice = details: cited from earlier work
[2] = tested on: endogenous anandamide levels; details: cited from earlier work
[3] = Cerep assay profiling; cited from earlier work
hot plate assay = details: 10–20 mg/kg, i.p.; cited from earlier work
[4] = tested on: human ether-a-go-go related gene (hERG); details: cited from earlier work
[5] = tested on: cannabinoid (CB2) receptor; details: cited from earlier work
[6] = biological target: T1, purified recombinant rat FAAH; details: cited from earlier work
[7] = tested on: cannabinoid (CB1) receptor; details: cited from earlier work
[8] = tested on: spinal nerve ligation (SNL) model of neuropathic pain; details: 10–20 mg/kg, i.p.; cited from earlier work
tail flick assay = details: 10–20 mg/kg, i.p.; cited from earlier work
P450 2D6 = details: cited from earlier work
[9] = tested on: vanilloid (TRP) receptors; details: cited from earlier work
[10] = tested on: formalin test of noxious chemical pain; details: 1st and 2nd phase; 10–20 mg/kg, i.p.; cited from earlier work
P450 3A4 = details: cited from earlier work
P450 2C9 = details: cited from earlier work
[11] = tested on: mild thermal injury (MTI) model of peripheral pain; details: 10–20 mg/kg, i.p.; cited from earlier work

Structure (SMILES): O=C(CCCCCCc1ccccc1)c1cnc(-c2ccccn2)o1 [compound 6]
- loss of FAAH inhibition ([1]; oxazole isomer, location of the oxazole nitrogen atom switched, compared with 2): > 4000 fold

Structure (SMILES): Cn1nnnc1C(=O)CCCCCCc1ccccc1 [19b]
- FAAH inhibition (in words) [1]: displayed FAAH inhibition at levels consistent with this series

Structure (SMILES): Cn1nnc(C(=O)CCCCCCc2ccccc2)n1 [19a]
- FAAH inhibition (in words) [1]: displayed FAAH inhibition at levels consistent with this series

Structure (SMILES): O=C(CCCCCCc1ccccc1)c1ncc(-c2ccccn2)o1 [compound 2]
- analgesia in FAAH knockout mice (FAAH knockout mice): ineffective at promoting analgesia
- endogenous anandamide levels [2]: increases endogenous anandamide levels
- offsite target activity [3]: lack significant offsite target activity
- analgesic activity, hot plate assay (hot plate assay): analgesic activity
- inhibition of hERG [4]: does not significantly inhibit
- CB2 receptor binding [5]: does not bind
- mode of inhibition (Lineweaver–Burk analysis) [6]: reversible, competitive inhibition
- CB1 receptor binding [7]: does not bind
- analgesic activity, SNL model [8]: analgesic activity
- analgesic activity, tail flick assay (tail flick assay): analgesic activity
- inhibition of P450 2D6 (P450 2D6): does not significantly inhibit
- vanilloid (TRP) receptor binding [9]: does not bind
- analgesic activity, formalin test [10]: analgesic activity
- inhibition of P450 3A4 (P450 3A4): does not significantly inhibit
- inhibition of P450 2C9 (P450 2C9): does not significantly inhibit
- analgesic activity, MTI model [11]: analgesic activity
